Test results taken from PubChem BioAssay AID244 (DTP/NCI, 2004).
Values joined by “and” are separate entries in the source; they are usually repeats but may differ in a detail not shown here. Equal entries are not always repeated. Records with an inconclusive call do not appear. *1 amine or outer side, *2 acyl side, *3 side chain or, on linkers, in order; H or OH if unused. Where a SMILES comes first, the peptide text is derived from it. Bridges are numbered along the chain shown (N, C = ends). Roman numbers before positions name the chains, in order. [ ]: non-standard residue; d: D form. Actinocin(9to1) = Cc1c2oc3c(C)ccc(C(=O)[*:1])c3nc-2c(C(=O)[*:2])c(N)c1=O; aThr = C[C@H](O)[C@H](N)C(=O)O; NMeV = CN[C@H](C(=O)O)C(C)C; Sar = CNCC(=O)O

Test system: CD2F1 mice, Lymphoma 8 ip, survival T/C
Experiment: NCI In Vivo Anticancer Drug Screen. Data for tumor model Lymphoma 8 (intraperitoneal) in CD2F1 (CDF1) mice
Conditions: higher = longer survival
Experimental: The antitumor activity of compounds was measured in mice bearing transplantable tumors. Survival or tumor size were measured and the results are expressed as the measurement made in the treated group (T) divided by the measurement made in the vehicle treated control group (C). The tumor model used in this assay is Lymphoma 8 (intraperitoneal) in CD2F1 (CDF1) mice

[1] = endpoint: survival time, mean or median, dose: 8.0 mg/kg/injection, schedule: Q01DX010 (ip), vehicle: saline
[2] = endpoint: survival time, mean or median, dose: 16.0 mg/kg/injection, schedule: Q01DX010 (ip), vehicle: saline

NC(=O)C(N)CCO (stereo not drawn)
T/C (endpoint: median survival time, dose: 50.0 mg/kg/injection, schedule: Q01DX009 (ip), vehicle: saline): 100 % of control and 102 % of control and 94 % of control | T/C (endpoint: median survival time, dose: 100.0 mg/kg/injection, schedule: Q01DX009 (ip), vehicle: saline): 97 % of control [middle of 4 runs] | T/C (endpoint: median survival time, dose: 100.0 mg/kg/injection, schedule: Q01DX010 (ip), vehicle: saline): 87 % of control and 88 % of control | T/C (endpoint: median survival time, dose: 200.0 mg/kg/injection, schedule: Q01DX009 (ip), vehicle: saline): 98 % of control [middle of 4 runs] | T/C (endpoint: median survival time, dose: 200.0 mg/kg/injection, schedule: Q01DX010 (ip), vehicle: saline): 91 % of control [middle of 4 runs] | T/C (endpoint: median survival time, dose: 400.0 mg/kg/injection, schedule: Q01DX009 (ip), vehicle: saline): 100 % of control [middle of 4 runs] | T/C (endpoint: median survival time, dose: 400.0 mg/kg/injection, schedule: Q01DX010 (ip), vehicle: saline): 95 % of control [middle of 4 runs]

NC(=O)c1[nH]nc(C2OC(CO)C(O)C2O)c1O (stereo not drawn)
T/C (endpoint: median survival time, dose: 2.0 mg/kg/injection, schedule: Q04DX003 (ip), vehicle: saline): 103 % of control | T/C (endpoint: median survival time, dose: 4.0 mg/kg/injection, schedule: Q04DX003 (ip), vehicle: saline): 91 % of control | T/C (endpoint: median survival time, dose: 8.0 mg/kg/injection, schedule: Q04DX003 (ip), vehicle: saline): 123 % of control | T/C (endpoint: median survival time, dose: 16.0 mg/kg/injection, schedule: Q04DX003 (ip), vehicle: saline): 75 % of control | T/C (endpoint: median survival time, dose: 32.0 mg/kg/injection, schedule: Q04DX003 (ip), vehicle: saline): 53 % of control

N=[N+]=CC(=O)OCC(N)C(=O)O (stereo not drawn)
T/C (endpoint: median survival time, dose: 2.0 mg/kg/injection, schedule: Q14DX016 (ip), vehicle: saline): 150 % of control

Nc1nc(=S)c2ncn(C3OC(CO)C(O)C3O)c2[nH]1 (stereo not drawn)
T/C (endpoint: survival time, mean or median, dose: 4.0 mg/kg/injection, schedule: Q01DX010 (ip), vehicle: saline): 150 % of control | T/C [1]: 118 % of control | T/C [2]: 86 % of control

COc1cccc2c1C(=O)c1c(O)c3c(c(O)c1C2=O)C[C@@](O)(C(C)=O)C[C@@H]3OC1CC(N)C(O)C(C)O1 (stereo partly drawn)
T/C (endpoint: median survival time, dose: 1.25 mg/kg/injection, schedule: Q01DX005 (ip), vehicle: saline): 96 % of control and 101 % of control | T/C (endpoint: median survival time, dose: 2.5 mg/kg/injection, schedule: Q01DX005 (ip), vehicle: saline): 100 % of control and 105 % of control | T/C (endpoint: median survival time, dose: 5.0 mg/kg/injection, schedule: Q01DX005 (ip), vehicle: saline): 123 % of control | T/C (endpoint: median survival time, dose: 10.0 mg/kg/injection, schedule: Q01DX005 (ip), vehicle: saline): 82 % of control

Cc1c2oc3c(C)ccc(C(=O)N[C@@H]4C(=O)N[C@H](C(C)C)C(=O)N5CCC[C@H]5C(=O)N(C)CC(=O)N(C)[C@@H](C(C)C)C(=O)O[C@H]4C)c3nc-2c(C(=O)N[C@@H]2C(=O)N[C@H](C(C)C)C(=O)N3CCC[C@H]3C(=O)N(C)CC(=O)N(C)[C@@H](C(C)C)C(=O)O[C@H]2C)c(N)c1=O (I: [aThr][dV]P[Sar][NMeV] / II: [aThr][dV]P[Sar][NMeV]; ester I:1-I:C, II:1-II:C; linker I:N-II:N via Actinocin(9to1))
T/C (endpoint: median survival time, dose: 0.05 mg/kg/injection, schedule: Q01DX002 (ip), vehicle: saline): 103 % of control | T/C (endpoint: median survival time, dose: 0.05 mg/kg/injection, schedule: Q04DX002 (ip), vehicle: saline): 100 % of control | T/C (endpoint: median survival time, dose: 0.1 mg/kg/injection, schedule: Q04DX002 (ip), vehicle: saline): 92 % of control | T/C (endpoint: median survival time, dose: 0.2 mg/kg/injection, schedule: Q01DX002 (ip), vehicle: saline): 106 % of control | T/C (endpoint: median survival time, dose: 0.2 mg/kg/injection, schedule: Q04DX002 (ip), vehicle: saline): 100 % of control

NC(C/[N+]([O-])=N/O)C(=O)O (stereo not drawn)
T/C (endpoint: median survival time, dose: 12.5 mg/kg/injection, schedule: Q01DX009 (ip), vehicle: other): 119 % of control | T/C (endpoint: median survival time, dose: 12.5 mg/kg/injection, schedule: Q01DX009 (ip), vehicle: saline + alcohol): 113 % of control | T/C (endpoint: median survival time, dose: 12.5 mg/kg/injection, schedule: Q01DX009 (ip), vehicle: water): 116 % of control | T/C (endpoint: median survival time, dose: 13.2 mg/kg/injection, schedule: Q01DX010 (ip), vehicle: alkali diluted with saline): 174 % of control | T/C (endpoint: median survival time, dose: 19.8 mg/kg/injection, schedule: Q01DX010 (ip), vehicle: alkali diluted with saline): 197 % of control | T/C (endpoint: median survival time, dose: 25.0 mg/kg/injection, schedule: Q01DX009 (ip), vehicle: other): 120 % of control | T/C (endpoint: median survival time, dose: 25.0 mg/kg/injection, schedule: Q01DX009 (ip), vehicle: saline + alcohol): 116 % of control | T/C (endpoint: median survival time, dose: 25.0 mg/kg/injection, schedule: Q01DX009 (ip), vehicle: water): 122 % of control | T/C (endpoint: median survival time, dose: 29.6 mg/kg/injection, schedule: Q01DX010 (ip), vehicle: alkali diluted with saline): 211 % of control | T/C (endpoint: median survival time, dose: 44.4 mg/kg/injection, schedule: Q01DX010 (ip), vehicle: alkali diluted with saline): 180 % of control | T/C (endpoint: median survival time, dose: 50.0 mg/kg/injection, schedule: Q01DX009 (ip), vehicle: other): 98 % of control | T/C (endpoint: median survival time, dose: 50.0 mg/kg/injection, schedule: Q01DX009 (ip), vehicle: water): 150 % of control | T/C (endpoint: median survival time, dose: 66.7 mg/kg/injection, schedule: Q01DX010 (ip), vehicle: alkali diluted with saline): 121 % of control | T/C (endpoint: median survival time, dose: 100.0 mg/kg/injection, schedule: Q01DX009 (ip), vehicle: other): 92 % of control | T/C (endpoint: median survival time, dose: 100.0 mg/kg/injection, schedule: Q01DX009 (ip), vehicle: saline + alcohol): 103 % of control | T/C (endpoint: median survival time, dose: 100.0 mg/kg/injection, schedule: Q01DX009 (ip), vehicle: water): 91 % of control | T/C (endpoint: median survival time, dose: 100.0 mg/kg/injection, schedule: Q01DX010 (ip), vehicle: alkali diluted with saline): 109 % of control

O=C1C=CC(=O)N1
T/C (endpoint: median survival time, dose: 0.25 mg/kg/injection, schedule: Q01DX009 (ip), vehicle: saline): 98 % of control and 109 % of control | T/C (endpoint: median survival time, dose: 0.5 mg/kg/injection, schedule: Q01DX009 (ip), vehicle: saline): 100 % of control and 102 % of control | T/C (endpoint: median survival time, dose: 1.0 mg/kg/injection, schedule: Q01DX009 (ip), vehicle: saline): 95 % of control and 102 % of control | T/C (endpoint: median survival time, dose: 2.0 mg/kg/injection, schedule: Q01DX009 (ip), vehicle: saline): 94 % of control and 95 % of control

CC[C@H]1CN2CCc3cc(OC)c(OC)cc3[C@@H]2C[C@@H]1C[C@H]1NCCc2cc(OC)c(OC)cc21
T/C (endpoint: median survival time, dose: 1.87 mg/kg/injection, schedule: Q04DX003 (ip), vehicle: saline): 107 % of control | T/C (endpoint: median survival time, dose: 2.5 mg/kg/injection, schedule: Q04DX003 (ip), vehicle: saline): 103 % of control | T/C (endpoint: median survival time, dose: 3.7 mg/kg/injection, schedule: Q04DX003 (ip), vehicle: water): 107 % of control | T/C (endpoint: median survival time, dose: 3.75 mg/kg/injection, schedule: Q04DX003 (ip), vehicle: saline): 111 % of control | T/C (endpoint: median survival time, dose: 5.0 mg/kg/injection, schedule: Q04DX003 (ip), vehicle: saline): 100 % of control | T/C (endpoint: median survival time, dose: 7.5 mg/kg/injection, schedule: Q04DX003 (ip), vehicle: saline): 111 % of control | T/C (endpoint: median survival time, dose: 7.5 mg/kg/injection, schedule: Q04DX003 (ip), vehicle: water): 107 % of control | T/C (endpoint: median survival time, dose: 10.0 mg/kg/injection, schedule: Q04DX003 (ip), vehicle: saline): 100 % of control | T/C (endpoint: median survival time, dose: 15.0 mg/kg/injection, schedule: Q04DX003 (ip), vehicle: saline): 118 % of control | T/C (endpoint: median survival time, dose: 15.0 mg/kg/injection, schedule: Q04DX003 (ip), vehicle: water): 107 % of control | T/C (endpoint: median survival time, dose: 20.0 mg/kg/injection, schedule: Q04DX003 (ip), vehicle: saline): 103 % of control

Nc1ncn(C2OC(CO)C(O)C2O)c(=O)n1 (stereo not drawn)
T/C (endpoint: median survival time, dose: 0.75 mg/kg/injection, schedule: Q01DX005 (ip), vehicle: saline): 116 % of control | T/C (endpoint: median survival time, dose: 3.0 mg/kg/injection, schedule: Q01DX005 (ip), vehicle: saline): 158 % of control

c1ccc(CNc2ncnc3[nH]ncc23)cc1
T/C [1]: 100 % of control | T/C [2]: 95 % of control | T/C (endpoint: survival time, mean or median, dose: 32.0 mg/kg/injection, schedule: Q01DX010 (ip), vehicle: saline): 95 % of control and 100 % of control | T/C (endpoint: survival time, mean or median, dose: 64.0 mg/kg/injection, schedule: Q01DX010 (ip), vehicle: saline): 90 % of control

NCCC(N)=O
T/C (endpoint: median survival time, dose: 50.0 mg/kg/injection, schedule: Q01DX005 (ip), vehicle: saline): 92 % of control and 94 % of control | T/C (endpoint: median survival time, dose: 100.0 mg/kg/injection, schedule: Q01DX005 (ip), vehicle: saline): 92 % of control and 94 % of control | T/C (endpoint: median survival time, dose: 200.0 mg/kg/injection, schedule: Q01DX005 (ip), vehicle: saline): 92 % of control and 94 % of control | T/C (endpoint: median survival time, dose: 400.0 mg/kg/injection, schedule: Q01DX005 (ip), vehicle: saline): 92 % of control and 94 % of control

O=C1C=C(C2OC(CO)C(O)C2O)C(=O)N1 (stereo not drawn)
T/C (endpoint: median survival time, dose: 2.0 mg/kg/injection, schedule: Q01DX010 (ip), vehicle: saline): 92 % of control | T/C (endpoint: median survival time, dose: 4.0 mg/kg/injection, schedule: Q01DX010 (ip), vehicle: saline): 92 % of control | T/C (endpoint: median survival time, dose: 8.0 mg/kg/injection, schedule: Q01DX005 (ip), vehicle: saline): 75 % of control | T/C (endpoint: median survival time, dose: 8.0 mg/kg/injection, schedule: Q01DX010 (ip), vehicle: saline): 100 % of control | T/C (endpoint: median survival time, dose: 16.0 mg/kg/injection, schedule: Q01DX005 (ip), vehicle: saline): 43 % of control | T/C (endpoint: median survival time, dose: 32.0 mg/kg/injection, schedule: Q01DX005 (ip), vehicle: saline): 17 % of control
